Tests used:
RAR gamma = target: T1, RAR gamma (Homo sapiens, UniProt P13631); assay: Ligand binding assay, retinoid receptors (Apfel et al.), RAR gamma; details: third value of the cell, read-out: IC50 nM (alpha/beta/gamma): gamma
T1 sequence (P13631 1-454): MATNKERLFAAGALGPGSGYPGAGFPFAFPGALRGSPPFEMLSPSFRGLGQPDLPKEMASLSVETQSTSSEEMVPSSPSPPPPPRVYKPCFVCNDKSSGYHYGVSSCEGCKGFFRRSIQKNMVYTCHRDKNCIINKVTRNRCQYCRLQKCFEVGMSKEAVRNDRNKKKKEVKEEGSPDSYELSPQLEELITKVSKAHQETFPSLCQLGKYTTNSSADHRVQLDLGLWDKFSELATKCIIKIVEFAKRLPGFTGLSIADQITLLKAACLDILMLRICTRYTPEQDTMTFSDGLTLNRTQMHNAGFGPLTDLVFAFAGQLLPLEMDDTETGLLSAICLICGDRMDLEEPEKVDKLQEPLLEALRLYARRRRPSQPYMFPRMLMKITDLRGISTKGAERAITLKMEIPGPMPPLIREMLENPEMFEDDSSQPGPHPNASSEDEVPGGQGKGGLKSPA
Text: (§1) The retinoic acid receptor agonist selectivity of a compound of the invention may be determined by using ligand binding assays known to the skilled artisan (Apfel et al., Proc. Natl. Acad. Sci., (1992), 89, 7129; Teng et al., J. Med. Chem., (1997), 40, 2445; Bryce et al., U.S. Pat. No. 5,807,900 which are herein incorporated by reference). Treatment with RAR agonists, particularly RAR γ agonists may promote repair of alveolar matrix and septation, which are in important in treating emphysema. Preferably, compounds of the invention are γ selective agonists that bind to the γ receptor with affinities between about 25 nm and about 1000 nm and show a five to ten fold selectivity over binding to the RAR α receptor. It should be noted that RAR agonists that are not γ selective may be effective in treating emphysema. Transactivation, which is the ability of a retinoid to activate gene transcription when gene transcription is initiated by the binding of a ligand to the particular retinoic acid receptor being tested, may be determined by using methods described in the art (Apfel et al., Proc. Natl. Acad. Sci., (1992), 89, 7129; Bernard et al., Biochem. And Biophys. Res. Comm., (1992), 186, 977 which is herein incorporated by reference.
(§2) The RAR α antagonist selectivity of compounds of the invention was determined by the ligand binding assays described in C. Apfel et al. Proc. Nat. Sci. Acad. (USA), 89:7129-7133 (1992).

RAR α = target: T2, RAR α (Homo sapiens, UniProt P10276); assay: Ligand binding assay, retinoid receptors (Apfel et al.), RAR alpha; details: first value of the cell, read-out: IC50 nM (alpha/beta/gamma): alpha
T2 sequence (P10276 1-462): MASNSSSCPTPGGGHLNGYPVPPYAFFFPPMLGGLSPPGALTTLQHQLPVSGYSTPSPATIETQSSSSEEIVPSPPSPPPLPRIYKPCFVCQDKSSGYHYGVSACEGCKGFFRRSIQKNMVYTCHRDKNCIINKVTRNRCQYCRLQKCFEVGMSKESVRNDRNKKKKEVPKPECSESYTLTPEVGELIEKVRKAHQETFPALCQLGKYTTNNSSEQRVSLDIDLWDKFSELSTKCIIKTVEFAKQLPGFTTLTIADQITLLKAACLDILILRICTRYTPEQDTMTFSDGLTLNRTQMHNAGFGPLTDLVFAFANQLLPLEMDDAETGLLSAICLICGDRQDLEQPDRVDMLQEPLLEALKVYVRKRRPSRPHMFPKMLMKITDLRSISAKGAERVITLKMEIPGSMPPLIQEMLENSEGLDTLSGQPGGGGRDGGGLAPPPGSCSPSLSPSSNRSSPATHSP
Text: as §1, §2

RAR beta = target: T3, RAR beta (Homo sapiens, UniProt P10826); assay: Ligand binding assay, retinoid receptors (Apfel et al.), RAR beta; details: second value of the cell, read-out: IC50 nM (alpha/beta/gamma): beta
T3 sequence (P10826 1-455): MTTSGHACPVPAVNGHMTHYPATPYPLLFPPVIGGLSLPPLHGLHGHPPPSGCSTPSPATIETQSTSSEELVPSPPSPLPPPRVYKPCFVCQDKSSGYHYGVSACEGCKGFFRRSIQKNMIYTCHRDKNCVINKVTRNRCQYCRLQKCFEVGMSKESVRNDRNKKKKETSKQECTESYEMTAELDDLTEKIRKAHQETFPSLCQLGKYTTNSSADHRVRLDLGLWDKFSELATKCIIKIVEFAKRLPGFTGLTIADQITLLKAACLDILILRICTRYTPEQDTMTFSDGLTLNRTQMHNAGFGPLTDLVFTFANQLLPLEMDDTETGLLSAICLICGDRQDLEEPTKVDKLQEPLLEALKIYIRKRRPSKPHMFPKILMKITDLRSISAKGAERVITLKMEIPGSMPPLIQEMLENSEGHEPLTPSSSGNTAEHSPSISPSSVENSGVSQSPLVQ
Text: as §1, §2

Row | IC50 (RAR gamma) [nM] | IC50 (RAR α) [nM] | IC50 (RAR beta) [nM] | melting point [°C] | SMILES
1 | 1700 | 3600 | 1600 | 184.2 to 187.9 | COCc1cc2c(cc1/C=C/c1ccc(C(=O)O)cc1)C(C)(C)CCC2(C)C [Compound 1]
2 | 190 | 1000 | 320 | – | CCCCSCc1cc2c(cc1/C=C/c1ccc(C(=O)O)cc1)C(C)(C)CCC2(C)C [Compound 2, 4-[(E)-2-(3-Butylthiomethyl-5,5,8,8-tetramethyl-5,6,7,8-tetrahydro-naphthalen-2-yl)vinyl]benzoic acid]
3 | 260 | 200 | 100 | 66.1 to 68.5 | CCC(C)CSCc1cc2c(cc1/C=C/c1ccc(C(=O)O)cc1)C(C)(C)CCC2(C)C (centres unmarked) [Compound 3]
4 | 17 | 260 | 140 | 255.6 to 257.4 | CC1(C)CCC(C)(C)c2cc(Cn3cccc3)c(/C=C/c3ccc(C(=O)O)cc3)cc21 [Compound 7, 4-[(E)-2-(5,5,8,8-tetramethyl-3-pyrrol-1-ylmethyl-5,6,7,8-tetrahydro-naphthalen-2-yl)vinyl]benzoic acid]
5 | 26 | 810 | 450 | 169.7 to 171 | CC1(C)CCC(C)(C)c2cc(CSCc3ccco3)c(/C=C/c3ccc(C(=O)O)cc3)cc21 [Compound 8]
6 | 210 | 1800 | 1400 | 164.7 to 166 | COCCCc1cc2c(cc1/C=C/c1ccc(C(=O)O)cc1)C(C)(C)CCC2(C)C [Compound 11, 4-{(E)-2-[3-(3-methoxypropyl}-5,8,8-tetramethyl-5,6,7,8-tetrahydro-naphthalen-2-yl]vinyl}benzoic acid]
7 | 1800 | 1000 | 1000 | – | CC1(C)CCC(C)(C)c2cc(CO)c(/C=C/c3ccc(C(=O)O)cc3)cc21 [Compound 15]
8 | 670 | 950 | 620 | – | Cc1cnn(Cc2cc3c(cc2/C=C/c2ccc(C(=O)O)cc2)C(C)(C)CCC3(C)C)c1 [Compound 20]
9 | 230 | 190 | 100 | – | Cn1nnnc1SCc1cc2c(cc1/C=C/c1ccc(C(=O)O)cc1)C(C)(C)CCC2(C)C [Compound 25]
